The results in this text go back to patent publication US7563787B2, “Substituted pyrazole compounds” (Miikana Therapeutics, Inc., priority 2005, dated 2009).

A word on the inhibition: it is the change of the read-out against control, counted positive when it falls.

The target of one assay is T1, Aurora B kinase (Homo sapiens, UniProt Q96GD4).
T1 construct: purchased BPS Biosciences, San Diego, Calif
In words: Aurora B (Aurora 1) Inhibition Assay. Type of assay: biochemical. The conditions noted are these: 100 μM compound; ATP 50 μM; 16 h. As to the method:
Assays for Aurora B kinase inhibition were carried out similarly to those for Aurora A kinase (see above) with the following modifications. Aurora B kinase (BPS Biosciences, San Diego, Calif.) was used as the enzyme, at a concentration was 2.5 μg/mL. The ATP concentration was 50 μM, and the kinase reaction was allowed to proceed for 16 h. Sodium orthovanadate (20 μM) was added to the buffer to inhibit contaminating phosphatases.

The next assay has as its system HCT-116 cell growth. In words: Whole Cell Cytotoxicity Assay: Sulforhodamine B. Type of assay: cell-based, Human. The conditions noted are these: Homo sapiens, HCT-116; 100 μM compound; 96 hours; SRB staining. As to the method:
Human tumor-derived cell lines, HCT116 or MCF7 (ATCC) were plated in a 96 well plate in DMEM containing 10% fetal bovine serum and 2 mM L-glutamine at a density of 500 HCT116 cells or 1,000 MCF7 cells per well and incubated at 37° C., 5% CO2, for 24 hours prior to the addition of experimental compounds. Compounds were added using the dilution series indicated to duplicate plates and the cells were incubated in media plus compound for 96 hours. An additional plate was fixed in 10% TCA at the time of the addition of compound to provide a measurement of the cell population at time zero, the time of drug addition. Following the 96 hour incubation, cells were fixed in situ by gently aspirating off the culture media and then adding 50 ul of ice cold 10% TCA per well and incubation at 4° C. for 60 minutes. The plates were washed with tap water five times and allowed to air dry for 5 minute. 50 ul of a 0.4% (w/v) Sulforhodamine B solution in 1% (v/v) acetic acid was added per well and the cells were incubated for 30 minutes at room temperature. Following staining, plates were washed four times with 1% acetic acid to remove any unbound dye and then allowed to air dry for 5 minutes. The stain was solubilized with 100 ul of 10 mM Tris pH 10.5 per well and placed on an orbital rotator for 5 minutes. The absorbance was read at 570 nm. Percentage growth was calculated using the absorbance readings from the time zero plate (Tz) and the dilution series plate […] which included a column of cells grown in media without compound as a control (C) using the formulas: [(Ti−Tz)/(C−Tz)]×100 for concentrations for which Ti>/=Tz [(Ti−Tz)/Tz]×100 for concentrations for which Ti<Tz.
Three dose response parameters were calculated for each experimental agent. Growth inhibition of 50% (GI50) was calculated from [(Ti−Tz)/(C−Tz)]×100=50, which was the drug concentration resulting in a 50% reduction in the net protein increase (as measured by SRB staining) in control cells during the drug incubation. The drug concentration resulting in total growth inhibition (TGI) was calculated from Ti=Tz. The LC50 (concentration of drug resulting in a 50% reduction in the measured protein at the end of the drug treatment as compared to that at the beginning) indicating a net loss of cells following treatment was calculated from [(Ti−Tz)/Tz]×100=−50. Values are calculated for each of these three parameters if the level of activity was reached; however, if the effect was not reached or was exceeded, the value for that parameter is expressed as greater or less than the maximum or minimum concentration tested.

The target in another assay is T2, recombinant Aurora A (Homo sapiens, UniProt O14965).
T2 construct: purchased Upstate, Lake Placid, N.Y
T2 sequence (O14965 1-403): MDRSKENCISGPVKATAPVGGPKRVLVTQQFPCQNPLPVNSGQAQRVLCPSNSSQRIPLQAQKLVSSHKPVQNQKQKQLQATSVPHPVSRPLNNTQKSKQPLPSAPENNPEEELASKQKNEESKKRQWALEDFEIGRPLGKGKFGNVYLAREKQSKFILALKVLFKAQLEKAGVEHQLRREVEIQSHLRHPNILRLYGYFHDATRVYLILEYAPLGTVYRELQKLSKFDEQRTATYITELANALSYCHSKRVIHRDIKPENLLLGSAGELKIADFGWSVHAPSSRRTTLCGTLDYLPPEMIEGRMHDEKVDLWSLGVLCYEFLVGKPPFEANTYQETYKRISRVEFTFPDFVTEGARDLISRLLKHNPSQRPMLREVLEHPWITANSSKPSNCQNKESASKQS
The assay can be described thus: Aurora A (Aurora 2) Inhibition Assay (Z'-Lyte). The conditions noted are these: 100 μM compound; ATP 10 μM; 1 h. Type of assay: biochemical. As to the method: Compounds were tested for their potency against recombinant Aurora A (Upstate, Lake Placid, N.Y.) using the PanVera Z'-Lyte kinase assay kit-Ser/[…] peptide (Invitrogen, Carlsbad, Calif.). […] Assays were carried out in half-area 96-well white polystyrene assay plates (Corning, Corning, N.Y.) in a final volume of 20 μl. The reaction was allowed to proceed for 1 h at room temperature in the dark, at which point the development reagent and stop reagent were added according to the manufacturer's instructions. Coumarin (Ex. 400 nm, Em. 465 nm) and fluorescein (Ex. 400 nm, Em. 565 nm) fluorescence values were measured on a SpectraFluor Plus plate reader (Tecan, Durham, N.C.). The emission ratio (coumarin/fluorescein) was determined and used to calculate the percent phosphorylation for each well. […] Typically 20-40% of the substrate was phosphorylated in wells without inhibitor. Dose-response curves of relative Aurora A activity vs. inhibitor concentration were plotted with Grafit (Erithacus Software, Horley, Surrey, UK).

Each structure is given as a SMILES string.

T1 sequence (Q96GD4 whole entry): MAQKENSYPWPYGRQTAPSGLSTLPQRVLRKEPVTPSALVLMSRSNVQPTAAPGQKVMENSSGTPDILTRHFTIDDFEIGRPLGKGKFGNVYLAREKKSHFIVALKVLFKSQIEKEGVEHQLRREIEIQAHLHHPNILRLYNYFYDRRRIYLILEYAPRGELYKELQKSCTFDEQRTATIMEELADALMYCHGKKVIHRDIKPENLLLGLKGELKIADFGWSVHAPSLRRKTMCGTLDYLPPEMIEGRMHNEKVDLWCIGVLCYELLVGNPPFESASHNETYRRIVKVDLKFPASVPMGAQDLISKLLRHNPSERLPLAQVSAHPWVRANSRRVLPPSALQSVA

Turning to `CCOC(=O)c1nc(/C=C/c2ccccc2)nc(Nc2cc(C)n[nH]2)c1N` [Example 18, ethyl 5-amino-6-[(3-methyl-1H-pyrazol-5-yl)amino]-2-[(E)-2-phenylvinyl]pyrimidine-4-carboxylate], the results for the inhibition at 100 µM at Aurora B kinase, in the assay on HCT-116 cell growth and on recombinant Aurora A were 100%, 80% and 100%, respectively.
Take `COC(=O)c1cc(Nc2cc(C)n[nH]2)nc(/C=C/c2ccccc2)n1` [Example 26, methyl 6-[(3-methyl-1H-pyrazol-5-yl)amino]-2-[(E)-2-phenylvinyl]pyrimidine-4-carboxylate]: the inhibition at 100 µM was 95% against Aurora B kinase, 98% in the assay with HCT-116 cell growth and 99% on recombinant Aurora A.
The matching figures for `Cc1cc(Nc2cc(N3CCN(C)CC3)nc(C#Cc3ccccc3)n2)n[nH]1` [Example 30, 6-(4-methylpiperazin-1-yl)-N-(3-methyl-1H-pyrazol-5-yl)-2-(phenylethynyl)pyrimidin-4-amine]: 97%, 99% and 100%.
As to `Cc1cc(Nc2cc(N3CCN(C)CC3)nc(/C=C\c3ccccc3)n2)n[nH]1` [Example 32, 6-(4-methylpiperazin-1-yl)-N-(3-methyl-1H-pyrazol-5-yl)-2-[(Z)-2-phenylvinyl]pyrimidin-4-amine], the inhibition at 100 µM at Aurora B kinase was 99%; with HCT-116 cell growth, 87%; at recombinant Aurora A it was 100%.
As for `Cc1cc(Nc2cc(N3CCN(C)CC3)nc(/C=C/c3ccco3)n2)n[nH]1` [Example 60, 2-((E)-2-(furan-2-yl)vinyl)-N-(5-methyl-1H-pyrazol-3-yl)-6-(4-methylpiperazin-1-yl)pyrimidin-4-amine], the inhibition at 100 µM is 99% on Aurora B kinase, 98% in the assay on HCT-116 cell growth and 100% on recombinant Aurora A.
Turning to `Cc1cc(Nc2cc(N3CCOCC3)nc(/C=C/c3ccccc3)n2)n[nH]1` [Example 64, N-(5-methyl-1H-pyrazol-3-yl)-6-morpholino-2-styrylpyrimidin-4-amine], the inhibition at 100 µM in the assay with HCT-116 cell growth is 98%; on recombinant Aurora A it was 100%.
In the same order, the values of `Cc1cc(Nc2cc(NCCN(C)C)nc(/C=C/c3ccccc3)n2)n[nH]1` [Example 66, N^4-(2-(dimethylamino)ethyl)-N^6-(5-methyl-1H-pyrazol-3-yl)-2-styrylpyrimidine-4,6-diamine] are 98% and 100%.
In the same order, the values of `Cc1cc(Nc2cc(N3CCCCC3)nc(/C=C/c3ccccc3)n2)n[nH]1` [Example 67, N-(5-methyl-1H-pyrazol-3-yl)-6-(piperidin-1-yl)-2-styrylpyrimidin-4-amine] are 98% and 100%.
With `Cc1cc(Nc2cc(OCCN(C)C)nc(/C=C/c3ccccc3)n2)n[nH]1` [Example 69], the inhibition at 100 µM in the assay with HCT-116 cell growth is 99%; at recombinant Aurora A it was 100%.
On to `Cc1cc(Nc2cc(N3CCN(S(C)(=O)=O)CC3)nc(/C=C/c3ccccc3)n2)n[nH]1` [Example 71, N-(5-methyl-1H-pyrazol-3-yl)-6-(4-methylsulfonylpiperazin-1-yl)-2-styrylpyrimidin-4-amine], for which the values for the inhibition at 100 µM with HCT-116 cell growth and on recombinant Aurora A were 98% and 100%, respectively.
In the same order, the values of `Cc1cc(Nc2cc(NCCN3CCN(C)CC3)nc(/C=C/c3ccccc3)n2)n[nH]1` [Example 77, N^4-(5-methyl-1H-pyrazol-3-yl)-N^6-(2-(4-methylpiperazin-1-yl)ethyl)-2-styrylpyrimidine-4,6-diamine] are 99% and 100%.
The matching figures for `Cc1cc(Nc2cc(Nc3ccccc3)nc(/C=C/c3ccccc3)n2)n[nH]1` [Example 82, N^4-(5-methyl-1H-pyrazol-3-yl)-N^6-phenyl-2-styrylpyrimidine-4,6-diamine]: 98% and 100%.
The matching figures for `Cc1cc(Nc2cc(N3CCSCC3)nc(/C=C/c3ccccc3)n2)n[nH]1` [Example 83, N-(5methyl-1H-pyrazol-3-yl)-2-styryl-6thiomorpholinopyrimidin-4-amine]: 98% and 100%.
Regarding `Cc1cc(Nc2cc(Nc3ccc(F)cc3)nc(/C=C/c3ccccc3)n2)n[nH]1` [Example 86, N^4-(4-fluorophenyl)-N^6-(5methyl-1H-pyrazol-3-yl)-2-styrylpyrimidine-4,6-diamine], the inhibition at 100 µM in the assay on HCT-116 cell growth was 98%; at recombinant Aurora A, 100%.
As to `Cc1cc(Nc2cc(NC3CCOCC3)nc(/C=C/c3ccccc3)n2)n[nH]1` [Example 99, N^4-(tetrahydro-2H-pyran-4-yl)-N^6-(5-methyl-1H-pyrazol-3-yl)-2-styrylpyrimidine-4,6-diamine], the inhibition at 100 µM in the assay with HCT-116 cell growth came to 98%; at recombinant Aurora A it was 100%.
`Cc1cc(Nc2cc(OC3CCNCC3)nc(/C=C/c3ccccc3)n2)n[nH]1` [Example 100]: the inhibition at 100 µM came to 100% against Aurora B kinase, 96% in the assay on HCT-116 cell growth and 100% on recombinant Aurora A.
For the compound `Cc1cc(Nc2cc(N3CCN(C)CC3)nc(/C=C/c3ccc(Br)cc3)n2)n[nH]1` [Example 103, 2-(4-bromostyryl)-N-(5-methyl-1H-pyrazol-3-yl)-6-(4-methylpiperazin-1-yl)pyrimidin-4-amine], the inhibition at 100 µM in the assay with HCT-116 cell growth turned out to be 84%; on recombinant Aurora A it was 100%.
As to `COc1ccc(/C=C/c2nc(Nc3cc(C)[nH]n3)cc(N3CCN(C)CC3)n2)cc1` [Example 160, 2-(4-methoxystyryl)-N-(5-methyl-1H-pyrazol-3-yl)-6-(4-methylpiperazin-1-yl)pyrimidin-4-amine], the values for the inhibition at 100 µM in the assay on HCT-116 cell growth and on recombinant Aurora A were 97% and 100%, respectively.
In the same order, the values of `Cc1cc(Nc2cc(NCc3ccco3)nc(/C=C/c3ccccc3)n2)n[nH]1` [Example 162, N^4-((furan-2-yl)methyl)-N^6-(5methyl-1H-pyrazol-3-yl)-2-styrylpyrimidine-4,6-diamine] are 98% and 100%.
In the same order, the values of `Cc1ccc(/C=C/c2nc(Nc3cc(C)[nH]n3)c(N)c(N3CCN(C)CC3)n2)cc1` [Example 170] are 99% and 100%.
In the same order, the values of `Cc1cc(Nc2nc(/C=C/c3ccc(Cl)cc3)nc(N3CCN(C)CC3)c2N)n[nH]1` [Example 172] are 99% and 99%.
Turning to `Cc1cc(Nc2nc(/C=C/c3ccc(F)cc3)nc(N3CCN(C)CC3)c2N)n[nH]1` [Example 173], the results for the inhibition at 100 µM in the assay on HCT-116 cell growth and at recombinant Aurora A were 98% and 100%, respectively.
